Structures can show the parent of a compound that is named as a salt.
Target: T1, human PAR-2 (hPAR-2) receptor (Homo sapiens, UniProt P55085)
T1 construct: expressed in HEK-293 cells in an endogenous manner; endogenous in cells; host or cells: HEK-293
T1 sequence (P55085 26-397): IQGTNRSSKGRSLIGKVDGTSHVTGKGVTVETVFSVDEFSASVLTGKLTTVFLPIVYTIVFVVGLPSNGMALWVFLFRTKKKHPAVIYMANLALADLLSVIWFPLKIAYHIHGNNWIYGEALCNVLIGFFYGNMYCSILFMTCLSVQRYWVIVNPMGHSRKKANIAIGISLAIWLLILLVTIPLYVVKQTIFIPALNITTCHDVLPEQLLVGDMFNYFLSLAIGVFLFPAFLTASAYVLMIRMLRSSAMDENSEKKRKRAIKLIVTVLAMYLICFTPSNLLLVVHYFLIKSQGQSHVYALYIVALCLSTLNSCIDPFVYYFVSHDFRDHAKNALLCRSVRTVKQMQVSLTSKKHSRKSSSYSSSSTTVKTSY
Experiment: In vitro human PAR-2 functional antagonist activity using calcium assays
Type: cell-based
Conditions: hPAR-2 endogenously expressed in HEK-293 cells; stimulated by 2-Furoyl-LIGRLO-NH2 peptide; Fluo4AM intracellular calcium, FLIPR Tetra
Description: Example 283: In Vitro Human PAR-2 Functional Antagonist Activity Using Calcium Assays
Examples of the present invention were tested successively for their agonist and antagonist activities on human PAR-2 (hPAR-2) receptor expressed in HEK-293 cells in an endogenous manner. Compounds exert agonist activity if, by themselves in absence of the 2-Furoyl-LIGRLO-NH2 peptide (selective hPAR-2 agonist), they activate PAR-2; they exert antagonist activity if they decrease the action of the 2-Furoyl-LIGRLO-NH2 peptide on the receptor. The assay used to determine compound activity is based on calcium measurement.
Cell Culture: HEK-293 cells were maintained in Dulbecco's Modified Eagle's Medium supplemented with 10% Foetal Calf Serum, 1% Penicillin/Streptomycin at 37° C./5% CO2. Flasks for tests (F75) are seeded with 6e+06 cells 24 h before the experiment at 37° C./5% CO2.
Calcium assay: Receptor activity was detected by changes in intracellular calcium measured using the fluorescent Ca^2+ sensitive dye, Fluo4AM (Molecular Probes).
The day of the assay, medium was replaced by assay buffer (HBSS 1× (Gibco 14175-053), Hepes 20 mM, MgSO4-7H2O 1 mM, Na2CO3 3.3 mM, CaCl2—2H2O 2.6 mM, 0.5% bovine serum albumin (BSA), Probenecid 2.5 mM, 0.1 mg/mL Pluronic Acid) and complemented with 1 μM Fluo4AM and cells were incubated during 1:30 h at 37° C.
Cells were then detached, resuspended in assay buffer and seeded in 384 wells, transparent-flat bottom black walled plates (2e+04 cells per well). Plates were incubated at +22° C. for 20 min. Compounds stock solutions were prepared in 100% DMSO and dilutions in test buffer were carried out in polypropylene plates with a digital dispenser (D300e, Tecan). Compounds were added to the cells and intracellular Ca^2+ measurements were collected at the same time on FLIPR Tetra® (Molecular Devices) with specific filters (Exc: 470-495 nm/Em: 515-575 nm).
Agonist and antagonist activities of compounds were consecutively evaluated on the same cell plate. Agonist activity was first measured after 10 min incubation with the compound alone. Then, cells were stimulated by an […] of the 2-Furoyl-LIGRLO-NH2 peptide and fluorescence was recorded for an additional 5 min. EC50 of the 2-Furoyl-LIGRLO-NH2 peptide was the concentration giving 80% of the maximal 2-Furoyl-LIGRLO-NH2 response. Agonist activities are evaluated in comparison to basal signals evoked by assay buffer or maximal 2-Furoyl-LIGRLO-NH2 response. […] Antagonist activities are evaluated in comparison to basal signals evoked by assay buffer or EC50 of 2-Furoyl-LIGRLO-NH2 alone.

| SMILES | IC50 [nM] |
| --- | --- |
| CCN1CCN(C(=O)c2ccc3c(n2)C(C)(C)CN3c2ccc(Cl)c(F)c2)C(C)(C)C1=O [Example 19, 4-(1-(4-chloro-3-fluorophenyl)-3,3-dimethyl-2,3-dihydro-1H-pyrrolo[3,2-b]pyridine-5-carbonyl)-1-ethyl-3,3-dimethylpiperazin-2-one] | < 500 |
| CC1(C)CN(c2ccc(Cl)c(F)c2)c2ccc(C(=O)N3CCOCC3(C)C)nc21 [Example 20, (1-(4-chloro-3-fluorophenyl)-3,3-dimethyl-2,3-dihydro-1H-pyrrolo[3,2-b]pyridin-5-yl)(3,3-dimethylmorpholino)methanone] | < 500 |
| CC(C)(C)OC(=O)N1CCN(C(=O)c2ccc3c(n2)C(C)(C)CN3c2ccc(Cl)c(F)c2)C(C)(C)C1 [Example 21, tert-butyl 4-(1-(4-chloro-3-fluorophenyl)-3,3-dimethyl-2,3-dihydro-1H-pyrrolo[3,2-b]pyridine-5-carbonyl)-3,3-dimethylpiperazine-1-carboxylate] | < 500 |
| CC1(C)CN(c2ccc(Cl)c(F)c2)c2ccc(C(=O)N3CCNCC3(C)C)nc21 [Example 22, (1-(4-chloro-3-fluorophenyl)-3,3-dimethyl-2,3-dihydro-1H-pyrrolo[3,2-b]pyridin-5-yl)(2,2-dimethylpiperazin-1-yl)methanone hydrochloride] | 500 to 10000 |
| CCN1CCN(C(=O)c2ccc3c(n2)C(C)(C)CN3c2ccc(Cl)c(F)c2)C(C)(C)C1 [Example 23, (1-(4-chloro-3-fluorophenyl)-3,3-dimethyl-2,3-dihydro-1H-pyrrolo[3,2-b]pyridin-5-yl)(4-ethyl-2,2-dimethylpiperazin-1-yl)methanone hydrochloride] | 500 to 10000 |
| CC(=O)N1CCN(C(=O)c2ccc3c(n2)C(C)(C)CN3c2ccc(Cl)c(F)c2)C(C)(C)C1 [Example 24, 1-(4-(1-(4-chloro-3-fluorophenyl)-3,3-dimethyl-2,3-dihydro-1H-pyrrolo[3,2-b]pyridine-5-carbonyl)-3,3-dimethylpiperazin-1-yl)ethan-1-one] | 500 to 10000 |
| CC1(C)CN(c2ccc(Cl)c(F)c2)c2ccc(C(=O)N3CCN(C(=O)CCC(=O)O)CC3(C)C)nc21 [Example 26, 4-(4-(1-(4-chloro-3-fluorophenyl)-3,3-dimethyl-2,3-dihydro-1H-pyrrolo[3,2-b]pyridine-5-carbonyl)-3,3-dimethylpiperazin-1-yl)-4-oxobutanoic acid] | 500 to 10000 |
| CCOC(=O)CCCC(=O)N1CCN(C(=O)c2ccc3c(n2)C(C)(C)CN3c2ccc(Cl)c(F)c2)C(C)(C)C1 [Example 27, ethyl 5-(4-(1-(4-chloro-3-fluorophenyl)-3,3-dimethyl-2,3-dihydro-1H-pyrrolo[3,2-b]pyridine-5-carbonyl)-3,3-dimethylpiperazin-1-yl)-5-oxopentanoate] | < 500 |
| CC1(C)CN(c2ccc(Cl)c(F)c2)c2ccc(C(=O)N3CCN(C(=O)CCCC(=O)O)CC3(C)C)nc21 [Example 28, 5-(4-(1-(4-chloro-3-fluorophenyl)-3,3-dimethyl-2,3-dihydro-1H-pyrrolo[3,2-b]pyridine-5-carbonyl)-3,3-dimethylpiperazin-1-yl)-5-oxopentanoic acid] | 500 to 10000 |
| CN1CNC(=O)C12CCN(C(=O)c1ccc3c(n1)C(C)(C)CN3c1ccc(Cl)c(F)c1)CC2 [Example 29, 8-(1-(4-chloro-3-fluorophenyl)-3,3-dimethyl-2,3-dihydro-1H-pyrrolo[3,2-b]pyridine-5-carbonyl)-1-methyl-1,3,8-triazaspiro[4.5]decan-4-one] | 500 to 10000 |
| CC1(C)CN(c2ccc(Cl)c(F)c2)c2ccc(C(=O)N3C[C@@H]4[C@@H](CC(=O)O)[C@@H]4C3)nc21 [Example 31, 2-((1R,5S,6S)-3-(1-(4-chloro-3-fluorophenyl)-3,3-dimethyl-2,3-dihydro-1H-pyrrolo[3,2-b]pyridine-5-carbonyl)-3-azabicyclo[3.1.0]hexan-6-yl)acetic acid] | < 500 |
